# According to patent publication US6353011B1, “1,2-dithiolane derivatives” (University of Mississippi, priority 1999, dated 2002):
# Legend:
# [1] = test system: Human keratinocytes; assay: Cell toxicity by lactate dehydrogenase release in keratinocyte culture; assay type: cell-based; details: highest concentration tested
# [2] = test system: Human MCF-7 breast cancer cells; assay: MCF-7 breast cancer cell proliferation (cell numbers); assay type: cell-based; details: MCF-7, varying concentrations
# [3] = test system: 3T3 L 1 fibroblasts; assay: 3T3 L1 differentiation into adipocytes (morphology, oil red O staining); assay type: cell-based; details: 3T3L1 cells
# Protocol: (§1) This example illustrates the effects of compound 87 and troglitazone on proliferation of 3T3 L 1 fibroblasts and differentiation into adipocytes. 3T3L1 cells were incubated with varying concentrations of either compound 87 or troglitazone and the effects on cell proliferation determined by measurement of cell numbers. […] The compounds of the present invention are capable of preventing cell proliferation without inducing adipogenesis and represent useful agents for treatment and prevention of obesity.
# [4] = test system: Human keratinocytes; assay: Human keratinocyte proliferation (cell numbers); assay type: cell-based; details: varying concentrations
# [5] = test system: insulin resistant obese Zucker rats; assay: Serum insulin and glucose in insulin resistant obese Zucker rats; assay type: in vivo, rat; details: oral 100 mg/kg/day for one week, versus placebo controls
# Text: The drug was suspended in a mixture of 0.5% carboxymethylcellulose and administered by gavage. […] After one week, blood samples were obtained for measurement of serum insulin levels by radioimmunoassay and serum glucose levels by glucose oxidase method. […] The effects of a higher dose of orally administered Rezulin® (troglitazone) on serum insulin and glucose levels in male obese Zucker rats as reported by Fujiwara et al., Diabetes 37.1549 are shown for comparison purposes.
# [6] = test system: insulin resistant obese Zucker rats; assay: Triglyceride levels in insulin resistant obese Zucker rats; assay type: in vivo, rat; details: oral 100 mg/kg/day for one week
# Text: The drug was suspended in a mixture of 0.5% carboxymethylcellulose and administered by gavage.
# [7] = test system: 3T3 L 1 fibroblasts; assay: 3T3 L1 fibroblast proliferation (cell numbers); assay type: cell-based; details: 3T3L1 cells
# Protocol: as §1
# [8] = test system: Human HT-29 colon cancer cells; assay: HT-29 colon cancer cell proliferation (cell numbers); assay type: cell-based
# [9] = test system: Human MDA-MB-23 1 breast cancer cells; assay: MDA-MB-231 breast cancer cell proliferation (cell numbers); assay type: cell-based
# Protocol: […]. […] Human MDA-MB-23 1 breast cancer cells were incubated with varying concentrations of either compound 86 or troglitazone and the effects on cell proliferation determined by measurement of cell numbers. […]. Compound 86 inhibits growth of human breast cancer cells.
# [10] = target: T1, PPAR gamma (Mus musculus, UniProt P37238); assay: In vitro molecular assays of PPAR gamma activation
# T1 sequence (P37238 1-505): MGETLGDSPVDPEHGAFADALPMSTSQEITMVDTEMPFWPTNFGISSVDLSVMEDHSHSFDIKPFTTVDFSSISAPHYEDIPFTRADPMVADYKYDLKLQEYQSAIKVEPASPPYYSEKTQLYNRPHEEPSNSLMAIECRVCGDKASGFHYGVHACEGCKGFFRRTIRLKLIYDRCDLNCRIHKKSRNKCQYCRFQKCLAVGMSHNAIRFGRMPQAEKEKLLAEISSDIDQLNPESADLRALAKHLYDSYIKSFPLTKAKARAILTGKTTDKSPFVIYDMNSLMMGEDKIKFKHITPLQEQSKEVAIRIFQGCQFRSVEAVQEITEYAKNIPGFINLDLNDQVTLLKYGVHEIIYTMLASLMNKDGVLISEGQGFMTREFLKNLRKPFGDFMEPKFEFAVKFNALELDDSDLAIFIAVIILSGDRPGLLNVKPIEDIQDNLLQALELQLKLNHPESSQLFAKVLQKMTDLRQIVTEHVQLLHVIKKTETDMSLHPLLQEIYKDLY
# [11] = Ulrich et al., U.S. Pat. No. 5,728,735; cited from earlier work
structure (smiles),measurement,setting,value
"Cc1c(C)c2c(c(C)c1O)CCC(C)(COc1ccc(CC3SC(=O)NC3=O)cc1)O2 (centres unmarked) [troglitazone, reference compound]",cell toxicity (release of lactate dehydrogenase in the culture medium),[1],associated with cell toxicity
CN(CCOc1ccc(CC2SC(=O)NC2=O)cc1)C(=O)CCCCC1CCSS1 (centres unmarked) [compound 12],cell toxicity (release of lactate dehydrogenase in the culture medium),[1],without inducing cell toxicity
same,cell proliferation (cell numbers),[2],dose dependent inhibition of malignant cell proliferation
same,adipogenesis and conversion of the fibroblasts to adipocytes,[3],potent inducers of adipogenesis
same,cell proliferation (cell numbers),[4],dose dependent inhibition of cell proliferation
same,serum glucose levels,[5]; glucose oxidase method,reductions in glucose levels
same,serum insulin levels,[5]; radioimmunoassay,reductions in serum insulin levels
same,triglyceride levels,[6],potent ability to reduce triglyceride levels
same,potency of inhibition of fibroblast proliferation compared with troglitazone,[7],in a more potent fashion than troglitazone
same,fibroblast proliferation (cell numbers),[7]; varying concentrations,dose dependent inhibition of fibroblast proliferation
same,potency in inhibiting malignant cell proliferation compared with troglitazone,[8]; HT-29,more potent than troglitazone
same,cell proliferation (cell numbers),"[8]; HT-29, varying concentrations",dose dependent inhibition of cell proliferation
O=C(CCCCC1CCSS1)NCCOc1ccc(CC2SC(=O)NC2=O)cc1 (centres unmarked) [compound 86],potency in inhibiting malignant cell proliferation compared with troglitazone,[9]; MDA-MB-23 1,more potent than troglitazone
same,cell proliferation (cell numbers),"[9]; MDA-MB-23 1, varying concentrations",dose dependent inhibition of cell proliferation
CN(C(=O)CCCCC1CCSS1)c1ccc(CC2SC(=O)NC2=O)cc1 (centres unmarked) [compound 87],activation of PPAR gamma,[10],did not activate PPAR gamma
same,adipogenesis and conversion of the fibroblasts to adipocytes,[3],but not compound 87 induced adipogenesis
O=C(O)CCCC[C@@H]1CCSS1 [R-lipoic acid],"anti-inflammatory activity, factor stronger than that of the racemate",[11],10
